Measurements as given in patent US8663645B2, “Use of native peptides and their optimized derivatives for vaccination” (Vaxon Biotech, priority 2005, dated 2014).
Several values for one entry are separate records, joined by “and”; a condition that tells them apart may be missing. Equal values may be shown once. No end group written: not given here.

Legend:
[1] = tested on: RMAS/HHD cells pulsed with MAGE-A248D9; experiment: Avidity of CTL lines for native MAGE-A248D9 (51Cr release); type: cell-based, HHD mice; settings: MAGE-A248V9 primed spleen cells
Protocol: (§1) HHD mice were injected subcutaneously with 100 μg of nonamer peptides emulsified in incomplete Freund's adjuvant (IFA) in the presence of 150 μg of the I-Ab restricted HBVcore128 T-helper epitope. Spleen cells (5×10^7 cells in 10 ml) from immunized HHD mice were stimulated in vitro with peptide (10 μM) in RPMI1640+10% FCS for five days. The CTL lines were established by weekly re-stimulation in vitro with irradiated spleen cells in the presence of peptide and 50 U/ml IL-2 (Proleukin, Chiron Corp., Emeryville, Calif.).
(§2) Murine RMAS/HHD cells were used as targets for cytotoxicity as described (Tourdot, Scardino et al. 2000). Briefly, 2.5×10^3 51Cr-labeled targets were pulsed with increasing doses (0.00001-10 μM) of peptides at 37° C. for 60 min. Effector cells in 100 μl were then added and incubated at 37° C. for 4 hours. After incubation, 100 μl of supernatant were collected and radioactivity was measured in a gamma counter. The specific lysis was determined as: Lysis=(Experimental Release−Spontaneous Release)/(Maximal Release−Spontaneous Release). CTL avidity is defined as the peptide concentration that gives half the maximal lysis. […] In Vivo Tumor Protection Assay
HHD mice were immunized with the optimized MAGE-A248V9 peptide, corresponding to the cryptic MAGE-A248D9 (both described in WO03083124). Eleven days later, spleen cells from vaccinated mice were pooled and in vitro serially stimulated with 100 μM of either MAGE-A248V9 or the native cryptic MAGE-A248D9 peptides in the presence of 50 IU/ml of IL2. Stimulations were repeated every week. After the first, third and sixth in vitro stimulation, CTL lines were tested for their avidity for the native MAGE-A248D9 peptide in a classical ^51Cr release cytotoxicity assay (Table 6).

[2] = Phase I clinical study: toxicity (NCI Common Toxicity Criteria); type: in vivo, human
Protocol: Patients received a total of six subcutaneous vaccinations administered every 3 weeks. Peptides in 0.5 ml aqueous solution were emulsified with 0.5 ml Montanide ISA51 immediately before being injected. The optimized TERT572Y peptide was used for the first 2 vaccinations and the native TERT572 peptide for the remaining 4 vaccinations. Five dose levels of the peptides were studied; dose levels included 2, 3, 4, 5 and 6 mg of both peptides. Three patients were entered at each dose level. An additional 3 patients were planned to be enrolled at the dose level where a dose-limiting event was observed. Each patient received the same peptide dose for all six vaccinations. No other treatment with possible antitumor activity, i.e., chemotherapy, radiotherapy, hormonal therapy or administration of corticosteroids, was allowed during the course of vaccination.
Before entering the study, all patients were assessed by complete medical history, physical examination, and complete blood cell count with differential, serum chemistry and baseline measurements of relevant tumor markers. Moreover, measurable disease was determined by standard imaging procedures (chest x-ray, ultrasound, computed tomography scans of thorax and abdomen, magnetic resonance imaging (MRI) if indicated, and whole body bone scans). Toxicity during the vaccination protocol was evaluated by repeating the complete blood cell count weekly and by performing medical history, physical examination and serum chemistry every three weeks before each subsequent injection during the vaccination period and every month thereafter during the follow up. Toxicity was assessed and scored using the National Cancer Institute (NCI) Common Toxicity Criteria (Ajani, Welch et al. 1990). Dose-limiting toxicity (DLT) was assessed during the entire vaccination protocol and was defined as the occurrence of any of the following: grade 4 hematologic toxicity; grade 3-4 neutropenia with fever>38.2° C.; grade 3-4 non-hematologic toxicity; and any treatment delay because of toxicity. Dose escalation was discontinued and the DLT dose level was reached if at least 50% of the patients treated at that level develop a DLT. The MTD dose level was defined as the first level below the DLT dose level.

EL4/HHD tumor cells = experiment: In vivo tumor protection assay; set-up: species or system HHD mice; settings: for Survival post-challenge / Survival post-challenge (days): individual mice
Protocol: HHD mice were vaccinated with 100 μg of peptide emulsified in IFA in the presence of 150 μg of the 1 Ab restricted HBVcore128 epitope once and then again two weeks later. One week after the second vaccination they were challenged subcutaneously with 2×10^4 EL4/HHD cells. Survival was recorded every two days.
HHD mice were vaccinated with the optimized cryptic TERT572Y and TERT988Y peptides and fifteen days later boosted with either the same optimized or the corresponding native cryptic peptide. Ten days after the boost, mice were challenged with EL4/HHD tumor cells and monitored for tumor growth and survival. Mice primed and boosted with the gp100154 peptide were used as negative controls (Table 8). 100% of control mice died by day 43 post-challenge.

[3] = tested on: RMAS/HHD cells pulsed with TERT988; experiment: Avidity of CTL lines for native TERT988 (51Cr release); type: cell-based, HHD mice; settings: TERT988Y primed spleen cells
Protocol: as §1, §2
HHD mice were immunized with the optimized cryptic TERT988Y peptide. Eleven days later, spleen cells from vaccinated mice were pooled and in vitro serially stimulated with 10 μM of either TERT988Y or the native cryptic TERT988 peptides in the presence of 50 IU/ml of IL2. Stimulations were repeated every week. After the first, third and sixth in vitro stimulation, CTL lines were tested for their avidity for the native TERT988 peptide in a classical ^51Cr release cytotoxicity assay (Table 5).

[4] = tested on: patients treated with TERT540; settings: cited from earlier work
[5] = tested on: RMAS/HHD cells pulsed with TERT572; experiment: Avidity for TERT572 of CTL after in vivo prime and boost; settings: individual HHD mice, 1st vaccination TERT572Y, 2nd vaccination the labelled peptide
Protocol: as §1, §2
HHD mice were vaccinated with the optimized cryptic TERT572Y peptide described above. Fifteen days later, they were boosted with either the same optimized or the native cryptic TERT572 peptide. […]

[6] = Storage stability of vaccine peptides; type: physicochemical; settings: more than two years of storage at −80° C.
Protocol: The vaccine consisted of optimized TERT572Y (YLFFYRKSV) (SEQ ID NO:2) and native TERT572 (RLFFYRKSV) (SEQ ID NO:1) peptides emulsified in Montanide ISA51 (Seppic Inc, France). The vaccine peptides were synthesized at the Faculty of Pharmacy, University of Patras (Greece) by means of solid-phase Fmoc/Bu chemistry. Quality assurance studies included confirmation of identity, sterility and purity (>95% for both peptides). […] Each peptide was prepared as a lyophilized powder for reconstitution and dilution in sterile water.

[7] = 1 in vitro stimulation with the labelled peptide
[8] = 3 in vitro stimulations with the labelled peptide
[9] = 6 in vitro stimulations with the labelled peptide
[10] = 1 in vitro stimulation with the labelled peptide (10 μM)
[11] = prime TERT988Y, boost the labelled peptide
[12] = prime TERT572Y, boost the labelled peptide

Substance: YLEYRQVPD (MAGE-A-248D9) [MAGE-A248D9]
- CTL avidity [1, 7]: 200 nM
- CTL avidity [1, 8]: 40 nM
- CTL avidity [1, 9]: 0.8 nM

Substance: YLFFYRKSV [TERT572Y, YLFFYRKSV]
- hematologic, renal, gastrointestinal or hepatic toxicity ([2]; TERT-expressing normal cells and tissues): no significant hematologic, renal, gastrointestinal or hepatic toxicity was observed
- MTD dose level ([2]; dose levels 2-6 mg): has not been reached
- Dose-limiting toxicity (DLT) ([2]; dose levels 2-6 mg, entire study): No DLT was observed
- signs of autoimmunity ([2]; even 24 months after the end of vaccination): none of the patients showed signs of autoimmunity
- Toxicity Grade I ([2]; individual patients): no (6×) and Anemia, local skin, fatigue, and anorexia and Thrombo/penia, local skin and Local skin (5×) and thrombocytopenia and Anemia, local skin (3×) and Anemia and Local skin, anemia
- Toxicity Grade II ([2]; individual patients): fatigue, nausea and no (16×) and anorexia, fatigue, and nausea and anorexia, fatigue
- Toxicity Grade III/IV ([2]; individual patients): no
- delayed toxicity ([2]; monthly follow up after completing or discontinuing vaccination): no signs or findings of delayed toxicity were observed
- grade 11 anorexia ([2]; of 19 patients): 2 patients
- grade 11 fatigue ([2]; of 19 patients): 3 patients
- grade 11 nausea ([2]; of 19 patients): 2 patients
- grade I anemia ([2]; of 19 patients): 6 patients
- grade I anorexia ([2]; of 19 patients): 1 patient
- grade I fatigue ([2]; of 19 patients): 1 patient
- grade I local skin reaction ([2]; of 19 patients): 11 patients
- grade I thrombocytopenia ([2]; of 19 patients): 2 patients
- patients who developed grade 11 toxicity ([2]; of 19 patients): Three
- patients who developed grade I toxicity ([2]; of 19 patients): Thirteen

Substance: YLEYRQVPV (MAGE-A-248V9) [MAGE-A248V9]
- CTL avidity [1, 7]: 400 nM
- CTL avidity [1, 8]: 450 nM
- CTL avidity [1, 9]: 320 nM

Substance: KTWGQYWQV [Gp100154, reference compound]
- Survival post-challenge (EL4/HHD tumor cells; prime Gp100154, boost the labelled peptide (negative control)): 39 days (2×) and 43 days and 41 days (2×) and 40 days
- control mice died by day 43 post-challenge (EL4/HHD tumor cells; primed and boosted with gp100154): 100%

Substance: DLQVNSLQTV (TERT-988) [TERT988]
- CTL line avidity [3, 10]: 170 nM
- CTL line avidity [3, 8]: 70 nM
- CTL line avidity [3, 9]: 3 nM
- Survival post-challenge (EL4/HHD tumor cells; [11]): 39 days and 40 days and 41 days
- Survival post-challenge (days) (EL4/HHD tumor cells; [11]): 200+ days

Substance: YLQVNSLQTV (TERT-988Y1) [TERT988Y]
- CTL line avidity [3, 10]: 300 nM
- CTL line avidity [3, 8]: 500 nM
- CTL line avidity [3, 9]: 600 nM
- Survival post-challenge (EL4/HHD tumor cells; [11]): 40 days (3×) and 43 days (2×)
- Survival post-challenge (days) (EL4/HHD tumor cells; [11]): 200+ days

Substance: TERT540: dominant peptide TERT540 (hTERT:540-548), literature vaccine (ILAKFLHWL; UniProt O14746 540-548, looked up, fragment)
- objective clinical response ([4]; 11 patients with renal cancer (Parkhurst, Riley et al. 2004)): none of 11 patients
- patients who responded to the vaccine ([4]; TERT540 emulsified in Monatanide (Parkhurst, Riley et al. 2004)): 50%

Substance: RLFFYRKSV (TERT-572) [TERT572, native cryptic peptide derived from TERT]
- CTL avidity [5]: 110 nM and 190 nM and 70 nM
- Survival post-challenge (EL4/HHD tumor cells; [12]): 32 days and 35 days and 40 days
- Survival post-challenge (days) (EL4/HHD tumor cells; [12]): 200+ days
- purity or concentration after storage [6]: No decrease in purity or concentration
